Experimental data reported in patent US20190263796A1, “LIM KINASE INHIBITORS, PHARMACEUTICAL COMPOSITION AND METHOD OF USE IN LIMK-MEDIATED DISEASES” (CELLIPSE, priority 2016, published 2019).
pIC50: −log10 of the molar value. Blank lines part the entries; values can stand above or below the compound they belong to.

Tests used:
P-MEK/Total MEK = experiment: Western blot MEK1 phosphorylation, Kasumi-1; assay type: cell-based; conditions: Kasumi-1 cells
Experimental: Cells were maintained at 37° C. with 5% CO2.
In a 6 wells plate (Falcon 353046), 2·10^6 cells in 1.5 mL medium are treated for 2 h with compounds. Cells are then collected and cell lysis is performed at 4° C. using RIPA buffer supplemented with protease inhibitors cocktail (Sigma-Aldrich P8340) and phosphatase inhibitors cocktail (Sigma-Aldrich P5726). Following centrifugation 30 min 15000 g 4° C., supernatants are mixed with Laemmli buffer and denaturation is performed by heating 5 min 95° C. 10 μL of samples are subjected to electrophoresis on 15% SDS-PAGE. After electro-transfer (Mini Transblot, Bio-Rad), the PVDF membrane (Merck-Millipore Immobilon P IPVH00010) is blocked with Tris Buffered Saline, pH 7.4 (TBS) with 0.1% Tween 20 and 5% BSA for 1 h at room temperature under agitation. The membrane was rinsed 3 times 10 min at room temperature under agitation with TBS, 0.1% Tween-20 (TBST) and then 1 h at room temperature with anti-phospho-Ser218/222-MEK1 (Merck-Millipore 07-461, 1/1000 dilution) antibody or anti-MEK1 (Merck-Millipore 07-641, 1/1000 dilution) diluted in TBS, 0.1% Tween 20 and 1% BSA. The membrane is then rinsed 3 times 10 min RT under agitation in TBST and incubated for 1 h with anti-rabbit secondary antibody, horseradish peroxidase conjugated (Jackson Immunoresearch #711-036-152) under agitation at room temperature. After three washes 10 min at room temperature in TBST, the detection of total or phosphorylated cofilin was performed using chemiluminescence kit ECL™ Plus (GE Healthcare RPN2132). For each concentration of compound, ratio between phosphorylated cofilin and total cofilin is determined. This ratio is then expressed as percentage of control ratio (i.e., ratio from DMSO treated cells). IC50 P-MEK/Total MEK is then determined.
Selectivity ratios are calculated by dividing the IC50 P-MEK/Total MEK value (μM) by the IC50 Phospho-Ser3-Cofilin/Total Cofilin value (μM).

MLCK(h) = experiment: KinaseProfiler panel: MLCK(h); assay type: biochemical, human; conditions: residual activity, 5 μM inhibitor, Km ATP
Experimental: (§1) Kinase selectivity was performed on a panel of 58 recombinant protein kinases. The assays were performed in the presence of 5 μM inhibitor at the respective Km ATP for each kinase, using the KinaseProfiler panel service (Merck-Millipore). Residual activity measured in the presence of […] inhibitor is expressed as the percent of activity determined in the absence of inhibitor.

JAK2(h) = target: T1, JAK2(h) (Homo sapiens, UniProt O60674); experiment: KinaseProfiler panel: JAK2(h); assay type: biochemical; conditions: residual activity, 5 μM inhibitor, Km ATP
T1 construct: purchased Merck-Millipore (KinaseProfiler panel service)
Experimental: as §1

ALK(h) = target: T2, ALK(h) (Homo sapiens, UniProt Q9UM73); experiment: KinaseProfiler panel: ALK(h); assay type: biochemical; conditions: residual activity, 5 μM inhibitor, Km ATP
T2 construct: purchased Merck-Millipore (KinaseProfiler panel service)
Experimental: as §1

AMPKα1(h) = target: T3, AMPKα1(h) (Homo sapiens, UniProt Q13131); experiment: KinaseProfiler panel: AMPKα1(h); assay type: biochemical; conditions: residual activity, 5 μM inhibitor, Km ATP
T3 construct: purchased Merck-Millipore (KinaseProfiler panel service)
Experimental: as §1

PAK6(h) = target: T4, PAK6(h) (Homo sapiens, UniProt Q9NQU5); experiment: KinaseProfiler panel: PAK6(h); assay type: biochemical; conditions: residual activity, 5 μM inhibitor, Km ATP
T4 construct: purchased Merck-Millipore (KinaseProfiler panel service)
Experimental: as §1

MRCKβ(h) = target: T5, MRCKβ(h) (Homo sapiens, UniProt Q9Y5S2); experiment: KinaseProfiler panel: MRCKβ(h); assay type: biochemical; conditions: residual activity, 5 μM inhibitor, Km ATP
T5 construct: purchased Merck-Millipore (KinaseProfiler panel service)
T5 sequence (Q9Y5S2 whole entry): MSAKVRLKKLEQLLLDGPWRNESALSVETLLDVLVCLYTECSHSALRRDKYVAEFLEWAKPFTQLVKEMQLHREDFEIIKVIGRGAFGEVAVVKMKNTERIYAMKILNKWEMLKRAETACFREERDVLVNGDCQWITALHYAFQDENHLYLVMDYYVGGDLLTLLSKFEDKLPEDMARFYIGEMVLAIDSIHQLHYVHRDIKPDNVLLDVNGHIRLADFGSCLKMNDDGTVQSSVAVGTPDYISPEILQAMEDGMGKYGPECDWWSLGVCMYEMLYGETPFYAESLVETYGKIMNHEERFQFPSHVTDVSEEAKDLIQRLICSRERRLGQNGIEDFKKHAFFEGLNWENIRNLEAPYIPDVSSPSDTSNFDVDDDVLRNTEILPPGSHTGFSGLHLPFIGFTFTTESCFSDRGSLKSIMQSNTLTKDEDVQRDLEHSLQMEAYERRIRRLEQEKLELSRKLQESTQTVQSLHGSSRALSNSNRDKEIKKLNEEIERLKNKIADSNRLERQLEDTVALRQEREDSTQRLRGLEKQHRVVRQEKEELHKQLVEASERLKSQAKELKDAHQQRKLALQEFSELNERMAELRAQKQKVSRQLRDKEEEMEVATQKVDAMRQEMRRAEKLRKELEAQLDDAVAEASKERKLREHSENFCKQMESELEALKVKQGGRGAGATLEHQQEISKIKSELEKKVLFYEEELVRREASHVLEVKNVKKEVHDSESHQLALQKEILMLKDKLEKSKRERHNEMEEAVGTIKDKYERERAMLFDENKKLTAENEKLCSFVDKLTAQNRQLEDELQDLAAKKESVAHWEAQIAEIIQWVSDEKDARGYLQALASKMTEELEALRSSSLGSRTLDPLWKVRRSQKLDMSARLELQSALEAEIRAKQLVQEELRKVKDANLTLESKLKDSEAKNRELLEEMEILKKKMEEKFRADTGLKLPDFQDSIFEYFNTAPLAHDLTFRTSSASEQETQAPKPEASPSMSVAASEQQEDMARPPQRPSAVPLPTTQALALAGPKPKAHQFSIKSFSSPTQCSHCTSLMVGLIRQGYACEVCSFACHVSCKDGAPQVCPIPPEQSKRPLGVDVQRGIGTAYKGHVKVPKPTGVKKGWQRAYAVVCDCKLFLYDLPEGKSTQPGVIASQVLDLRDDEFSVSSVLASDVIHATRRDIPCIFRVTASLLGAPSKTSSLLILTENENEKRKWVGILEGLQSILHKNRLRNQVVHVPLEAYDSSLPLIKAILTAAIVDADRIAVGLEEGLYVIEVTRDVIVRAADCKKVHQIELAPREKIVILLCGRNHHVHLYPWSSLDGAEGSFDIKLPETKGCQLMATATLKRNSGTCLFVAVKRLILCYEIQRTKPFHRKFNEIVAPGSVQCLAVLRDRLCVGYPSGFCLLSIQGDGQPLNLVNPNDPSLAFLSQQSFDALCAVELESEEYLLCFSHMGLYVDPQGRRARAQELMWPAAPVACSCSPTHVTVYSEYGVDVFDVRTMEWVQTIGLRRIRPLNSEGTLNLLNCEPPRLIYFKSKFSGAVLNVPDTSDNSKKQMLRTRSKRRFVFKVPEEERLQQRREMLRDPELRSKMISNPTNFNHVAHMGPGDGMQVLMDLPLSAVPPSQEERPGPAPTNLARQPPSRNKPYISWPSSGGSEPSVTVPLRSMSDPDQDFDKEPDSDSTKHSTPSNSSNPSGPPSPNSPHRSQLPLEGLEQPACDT
Experimental: as §1

Src(1-530)(h) = target: T6, Src(1-530)(h) (Homo sapiens, UniProt P12931); experiment: KinaseProfiler panel: Src(1-530)(h); assay type: biochemical; conditions: residual activity, 5 μM inhibitor, Km ATP
T6 construct: Src(1-530)(h); purchased Merck-Millipore (KinaseProfiler panel service)
T6 sequence (P12931 1-530): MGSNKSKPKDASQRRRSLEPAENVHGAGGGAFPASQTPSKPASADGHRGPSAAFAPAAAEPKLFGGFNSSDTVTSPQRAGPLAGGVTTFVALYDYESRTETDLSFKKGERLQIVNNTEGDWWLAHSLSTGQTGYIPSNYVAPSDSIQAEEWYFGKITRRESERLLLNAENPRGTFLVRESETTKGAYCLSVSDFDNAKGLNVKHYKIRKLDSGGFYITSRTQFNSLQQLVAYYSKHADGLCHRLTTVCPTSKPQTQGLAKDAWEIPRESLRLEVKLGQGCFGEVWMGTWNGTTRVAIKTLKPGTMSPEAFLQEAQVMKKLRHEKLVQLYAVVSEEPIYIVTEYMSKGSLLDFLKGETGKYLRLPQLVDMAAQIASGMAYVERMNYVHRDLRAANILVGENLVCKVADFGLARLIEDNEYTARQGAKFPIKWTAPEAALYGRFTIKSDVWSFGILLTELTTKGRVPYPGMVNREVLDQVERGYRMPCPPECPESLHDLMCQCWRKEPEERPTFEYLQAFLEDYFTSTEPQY
Experimental: as §1

CaMKIβ(h) = target: T7, CaMKIβ(h) (Homo sapiens, UniProt Q6P2M8); experiment: KinaseProfiler panel: CaMKIβ(h); assay type: biochemical; conditions: residual activity, 5 μM inhibitor, Km ATP
T7 construct: purchased Merck-Millipore (KinaseProfiler panel service)
Experimental: as §1

[1] = target: T8, recombinant human LIMK2 fragment 1-638 (Homo sapiens, UniProt P53671); experiment: LIMK2 kinase assay (Compound 1), anti-phospho-Ser3-cofilin detection; assay type: biochemical; conditions: 360 μM ATP; GST-cofilin 1 substrate; chemiluminescence detection
T8 construct: recombinant human LIMK2 fragment 1-638; 6His (N); purchased Carna Biosciences 09-106
T8 sequence (P53671 whole entry, the tested form may be a part): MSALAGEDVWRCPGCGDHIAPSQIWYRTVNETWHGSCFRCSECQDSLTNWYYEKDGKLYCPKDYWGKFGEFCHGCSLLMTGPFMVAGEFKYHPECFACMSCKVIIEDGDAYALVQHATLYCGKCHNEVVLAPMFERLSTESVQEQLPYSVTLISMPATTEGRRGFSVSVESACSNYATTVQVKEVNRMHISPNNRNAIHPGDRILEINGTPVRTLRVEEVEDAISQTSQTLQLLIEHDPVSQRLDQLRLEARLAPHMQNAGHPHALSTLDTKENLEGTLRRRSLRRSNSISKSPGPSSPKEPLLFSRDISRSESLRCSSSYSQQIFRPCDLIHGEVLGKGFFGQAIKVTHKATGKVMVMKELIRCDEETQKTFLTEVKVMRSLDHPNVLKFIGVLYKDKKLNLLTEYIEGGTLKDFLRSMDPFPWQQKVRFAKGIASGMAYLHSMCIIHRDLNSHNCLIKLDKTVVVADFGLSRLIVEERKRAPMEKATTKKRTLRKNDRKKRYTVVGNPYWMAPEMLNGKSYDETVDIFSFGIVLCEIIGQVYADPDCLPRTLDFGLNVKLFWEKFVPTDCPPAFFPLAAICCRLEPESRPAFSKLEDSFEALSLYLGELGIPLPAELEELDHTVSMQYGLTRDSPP
Experimental: Compounds were tested in a LIMK2 assay performed in a final volume of 12.5 μl containing 1.5 μl of compound or equivalent amount of DMSO as control, 1 μl (6.25 ng) of N-terminal 6His-tagged recombinant human LIMK2 fragment 1-638 (Carna Biosciences #09-106, in 20 mM MOPS pH=7.0, 1 mM EDTA, 0.01% NP-40, 5% glycerol, 0.1% 2-mercaptoethanol, 1 mg·mL^−1 Bovine Serum Albumin) and a mixture containing 8 mM MOPS pH=7.0, 200 μM EDTA, 110 μM of recombinant GST-cofilin 1, 10 mM MgCl2, and 360 μM ATP. Assays were performed at 30° C. for 10 min before termination by the addition of 40 μl of Laemmli buffer. Samples are then diluted into 1500 μL H2O and 100 μL are then diluted with 200 μL TBS. 5 μL are then spotted on a PVDF membrane (Merck-Millipore Immobilon P IPVH00010). After 20 min incubation RT, membrane was blocked with TBS, 0.1% Tween 20 and 5% BSA for 1 h RT under agitation. The membrane was rinsed 3 times 10 min RT under agitation with TBS, 0.1% Tween-20 (TBST) and then 1 h RT with anti-phospho-Ser3-cofilin (Cell Signaling Technology #3313, 1/1000 dilution) antibody diluted in TBS, 0.1% Tween 20 and 1% BSA. The membrane is then rinsed 3 times 10 min RT under agitation in TBST and incubated for 1 hour with anti-rabbit secondary antibody, horseradish peroxidase conjugated (Jackson Immunoresearch #711-036-152) under agitation at room temperature. […] IC50 LIMK2 is then determined.

Flt4(h) = target: T9, Flt4(h) (Homo sapiens, UniProt P35916); experiment: KinaseProfiler panel: Flt4(h); assay type: biochemical; conditions: residual activity, 5 μM inhibitor, Km ATP
T9 construct: purchased Merck-Millipore (KinaseProfiler panel service)
Experimental: as §1

Flt3(h) = target: T10, Flt3(h) (Homo sapiens, UniProt P36888); experiment: KinaseProfiler panel: Flt3(h); assay type: biochemical; conditions: residual activity, 5 μM inhibitor, Km ATP
T10 construct: purchased Merck-Millipore (KinaseProfiler panel service)
Experimental: as §1

Flt3(D835Y)(h) = target: T11, Flt3(D835Y)(h) (Homo sapiens, UniProt P36888, D835Y); experiment: KinaseProfiler panel: Flt3(D835Y)(h); assay type: biochemical; conditions: residual activity, 5 μM inhibitor, Km ATP
T11 construct: purchased Merck-Millipore (KinaseProfiler panel service)
Experimental: as §1

Ret(h) = target: T12, Ret(h) (Homo sapiens, UniProt P07949); experiment: KinaseProfiler panel: Ret(h); assay type: biochemical; conditions: residual activity, 5 μM inhibitor, Km ATP
T12 construct: purchased Merck-Millipore (KinaseProfiler panel service)
Experimental: as §1

cKit(V560G)(h) = target: T13, cKit(V560G)(h) (Homo sapiens, UniProt P10721, V560G); experiment: KinaseProfiler panel: cKit(V560G)(h); assay type: biochemical; conditions: residual activity, 5 μM inhibitor, Km ATP
T13 construct: purchased Merck-Millipore (KinaseProfiler panel service)
T13 sequence (P10721 26-976 V560G): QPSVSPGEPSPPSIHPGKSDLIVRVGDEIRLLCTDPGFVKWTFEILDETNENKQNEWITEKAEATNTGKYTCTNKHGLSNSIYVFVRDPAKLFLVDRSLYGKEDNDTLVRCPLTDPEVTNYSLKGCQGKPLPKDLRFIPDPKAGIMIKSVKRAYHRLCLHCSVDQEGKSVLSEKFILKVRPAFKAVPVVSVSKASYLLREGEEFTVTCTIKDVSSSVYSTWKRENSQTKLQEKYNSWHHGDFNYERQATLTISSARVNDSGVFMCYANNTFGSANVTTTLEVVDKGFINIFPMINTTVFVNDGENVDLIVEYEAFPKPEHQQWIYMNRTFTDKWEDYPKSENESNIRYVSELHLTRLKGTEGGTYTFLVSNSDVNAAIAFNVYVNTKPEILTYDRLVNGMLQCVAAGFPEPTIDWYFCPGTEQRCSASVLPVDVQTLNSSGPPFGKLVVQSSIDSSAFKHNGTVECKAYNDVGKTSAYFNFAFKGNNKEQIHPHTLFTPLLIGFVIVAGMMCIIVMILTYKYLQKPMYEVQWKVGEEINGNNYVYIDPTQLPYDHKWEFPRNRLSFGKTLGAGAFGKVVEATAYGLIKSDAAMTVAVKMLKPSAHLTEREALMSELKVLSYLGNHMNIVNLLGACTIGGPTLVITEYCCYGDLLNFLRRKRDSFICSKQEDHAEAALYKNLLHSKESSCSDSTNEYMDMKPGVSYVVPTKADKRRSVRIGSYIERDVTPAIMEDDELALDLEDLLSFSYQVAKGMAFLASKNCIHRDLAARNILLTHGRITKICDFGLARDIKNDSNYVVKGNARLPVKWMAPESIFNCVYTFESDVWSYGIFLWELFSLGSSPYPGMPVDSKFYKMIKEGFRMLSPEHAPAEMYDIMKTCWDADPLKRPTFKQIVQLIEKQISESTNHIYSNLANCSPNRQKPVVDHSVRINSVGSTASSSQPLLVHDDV
Experimental: as §1

EGFR(h) = target: T14, EGFR(h) (Homo sapiens, UniProt P00533); experiment: KinaseProfiler panel: EGFR(h); assay type: biochemical; conditions: residual activity, 5 μM inhibitor, Km ATP
T14 construct: purchased Merck-Millipore (KinaseProfiler panel service)
Experimental: as §1

TAK1(h) = target: T15, TAK1(h) (Homo sapiens, UniProt O43318); experiment: KinaseProfiler panel: TAK1(h); assay type: biochemical; conditions: residual activity, 5 μM inhibitor, Km ATP
T15 construct: purchased Merck-Millipore (KinaseProfiler panel service)
T15 sequence (O43318 1-303 limits assumed): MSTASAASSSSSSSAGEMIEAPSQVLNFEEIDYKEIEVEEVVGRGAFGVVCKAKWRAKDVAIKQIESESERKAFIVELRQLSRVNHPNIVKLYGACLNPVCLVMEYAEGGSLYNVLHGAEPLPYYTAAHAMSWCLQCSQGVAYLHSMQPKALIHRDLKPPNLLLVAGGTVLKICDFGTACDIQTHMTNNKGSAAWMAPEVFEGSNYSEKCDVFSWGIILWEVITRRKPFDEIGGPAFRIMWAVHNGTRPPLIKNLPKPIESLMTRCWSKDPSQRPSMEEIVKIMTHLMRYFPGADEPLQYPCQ
Experimental: as §1

Plk1(h) = target: T16, Plk1(h) (Homo sapiens, UniProt P53350); experiment: KinaseProfiler panel: Plk1(h); assay type: biochemical; conditions: residual activity, 5 μM inhibitor, Km ATP
T16 construct: purchased Merck-Millipore (KinaseProfiler panel service)
Experimental: as §1

PAK3(h) = target: T17, PAK3(h) (Homo sapiens, UniProt O75914); experiment: KinaseProfiler panel: PAK3(h); assay type: biochemical; conditions: residual activity, 5 μM inhibitor, Km ATP
T17 construct: purchased Merck-Millipore (KinaseProfiler panel service)
T17 sequence (O75914 whole entry): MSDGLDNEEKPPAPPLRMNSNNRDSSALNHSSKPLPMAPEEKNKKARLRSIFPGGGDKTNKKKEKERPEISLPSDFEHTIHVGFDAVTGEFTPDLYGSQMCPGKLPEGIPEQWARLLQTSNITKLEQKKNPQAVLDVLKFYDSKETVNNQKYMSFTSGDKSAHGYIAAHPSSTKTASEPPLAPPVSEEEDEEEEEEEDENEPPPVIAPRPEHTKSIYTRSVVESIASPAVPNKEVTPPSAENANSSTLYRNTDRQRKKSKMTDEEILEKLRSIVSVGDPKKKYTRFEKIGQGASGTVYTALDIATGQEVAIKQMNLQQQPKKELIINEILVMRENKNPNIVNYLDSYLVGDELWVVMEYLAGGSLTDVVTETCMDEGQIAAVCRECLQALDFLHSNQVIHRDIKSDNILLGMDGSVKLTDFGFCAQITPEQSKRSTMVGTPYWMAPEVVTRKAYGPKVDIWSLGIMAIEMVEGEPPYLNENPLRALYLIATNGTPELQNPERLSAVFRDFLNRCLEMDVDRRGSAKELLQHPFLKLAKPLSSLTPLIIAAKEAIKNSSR
Experimental: as §1

PAK5(h) = target: T18, PAK5(h) (Homo sapiens, UniProt Q9P286); experiment: KinaseProfiler panel: PAK5(h); assay type: biochemical; conditions: residual activity, 5 μM inhibitor, Km ATP
T18 construct: purchased Merck-Millipore (KinaseProfiler panel service)
Experimental: as §1

cKit(D816V)(h) = target: T19, cKit(D816V)(h) (Homo sapiens, UniProt P10721, D816V); experiment: KinaseProfiler panel: cKit(D816V)(h); assay type: biochemical; conditions: residual activity, 5 μM inhibitor, Km ATP
T19 construct: purchased Merck-Millipore (KinaseProfiler panel service)
T19 sequence (P10721 26-976 D816V): as the sequence (P10721 26-976 V560G) above, with G535V, D791V counted along it
Experimental: as §1

MKK4(m) = target: T20, MKK4(m) (Mus musculus, UniProt P47809); experiment: KinaseProfiler panel: MKK4(m); assay type: biochemical; conditions: residual activity, 5 μM inhibitor, Km ATP
T20 construct: purchased Merck-Millipore (KinaseProfiler panel service)
Experimental: as §1

BTK(h) = target: T21, BTK(h) (Homo sapiens, UniProt Q06187); experiment: KinaseProfiler panel: BTK(h); assay type: biochemical; conditions: residual activity, 5 μM inhibitor, Km ATP
T21 construct: purchased Merck-Millipore (KinaseProfiler panel service)
Experimental: as §1

cKit(D816H)(h) = target: T22, cKit(D816H)(h) (Homo sapiens, UniProt P10721, D816H); experiment: KinaseProfiler panel: cKit(D816H)(h); assay type: biochemical; conditions: residual activity, 5 μM inhibitor, Km ATP
T22 construct: purchased Merck-Millipore (KinaseProfiler panel service)
T22 sequence (P10721 26-976 D816H): as the sequence (P10721 26-976 V560G) above, with G535V, D791H counted along it
Experimental: as §1

ROCK-I(h) = target: T23, ROCK-I(h) (Homo sapiens, UniProt Q13464); experiment: KinaseProfiler panel: ROCK-I(h); assay type: biochemical; conditions: residual activity, 5 μM inhibitor, Km ATP
T23 construct: purchased Merck-Millipore (KinaseProfiler panel service)
Experimental: as §1

pIC50 (P-MEK/Total MEK; Homo sapiens, 2 h, read-out: IC50 P-MEK/Total MEK): < 6.00
SMILES: O=S(=O)(Nc1cccc(-c2nc(CCO)sc2-c2ccnc(Nc3ccccc3)n2)c1F)c1c(F)cccc1F [8 (Na)]
Selectivity ratio (P-MEK/Total MEK; IC50 P-MEK/Total MEK divided by IC50 Phospho-Ser3-Cofilin/Total Cofilin): 10

SMILES: CC(C)(C)c1nc(-c2cccc(NS(=O)(=O)c3c(F)cccc3F)c2F)c(-c2ccnc(Nc3ccccc3)n2)s1 [Compound 1, N-(3-(2-(tert-butyl)-5-(2-(phenylamino)pyrimidin-4-yl)thiazol-4-yl)-2-fluorophenyl)-2,6-difluorobenzenesulfonamide]
% activity (MLCK(h)): − (50%≤residual activity)
activity at 5 µM (JAK2(h)): ≥ 50%
activity at 5 µM (ALK(h)): ≥ 50%
activity at 5 µM (AMPKα1(h)): ≥ 50%
activity at 5 µM (PAK6(h)): ≥ 50%
activity at 5 µM (MRCKβ(h)): ≥ 50%
activity at 5 µM (Src(1-530)(h)): 3 to 10%
activity at 5 µM (CaMKIβ(h)): ≥ 50%
pIC50 [1]: 6.30 to 7.00
activity at 5 µM (Flt4(h)): 3 to 10%
activity at 5 µM (Flt3(h)): ≥ 50%
activity at 5 µM (Flt3(D835Y)(h)): ≥ 50%
activity at 5 µM (Ret(h)): 10 to 50%
activity at 5 µM (cKit(V560G)(h)): 10 to 50%
activity at 5 µM (EGFR(h)): ≥ 50%
activity at 5 µM (TAK1(h)): ≥ 50%
activity at 5 µM (Plk1(h)): ≥ 50%
activity at 5 µM (PAK3(h)): ≥ 50%
activity at 5 µM (PAK5(h)): ≥ 50%
activity at 5 µM (cKit(D816V)(h)): ≥ 50%
activity at 5 µM (MKK4(m)): ≥ 50%
activity at 5 µM (BTK(h)): 10 to 50%
activity at 5 µM (cKit(D816H)(h)): 10 to 50%
activity at 5 µM (ROCK-I(h)): ≥ 50%
